Measurements as given in ChEMBL document CHEMBL1149176, “(2R)-2-ethylchromane-2-carboxylic acids: discovery of novel PPARalpha/gamma dual agonists as antihyperglycemic and hypolipidemic agents” (J Med Chem, 2004).
Blank lines part the entries; values can stand above or below the compound they belong to.

Legend:
[1] = target: T1, Peroxisome proliferator-activated receptor alpha (Homo sapiens, UniProt Q07869)
T1 sequence (Q07869 whole entry): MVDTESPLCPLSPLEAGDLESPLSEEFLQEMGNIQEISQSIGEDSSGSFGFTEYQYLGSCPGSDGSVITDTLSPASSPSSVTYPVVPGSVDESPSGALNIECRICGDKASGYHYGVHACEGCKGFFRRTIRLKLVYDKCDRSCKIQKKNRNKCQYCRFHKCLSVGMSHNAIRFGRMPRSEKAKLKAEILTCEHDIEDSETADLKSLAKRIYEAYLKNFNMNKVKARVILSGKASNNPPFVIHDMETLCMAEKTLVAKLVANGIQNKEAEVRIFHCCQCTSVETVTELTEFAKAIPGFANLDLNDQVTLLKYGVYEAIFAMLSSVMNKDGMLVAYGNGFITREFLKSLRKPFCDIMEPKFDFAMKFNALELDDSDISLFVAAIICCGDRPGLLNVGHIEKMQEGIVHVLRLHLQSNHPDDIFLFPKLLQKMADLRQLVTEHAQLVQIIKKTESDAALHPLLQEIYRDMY
Description: In vitro binding affinity for human peroxisome proliferator activated receptor alpha using scintillation proximity assay (SPA)

[2] = target: T2, Peroxisome proliferator-activated receptor gamma (Homo sapiens, UniProt P37231)
T2 sequence (P37231 whole entry): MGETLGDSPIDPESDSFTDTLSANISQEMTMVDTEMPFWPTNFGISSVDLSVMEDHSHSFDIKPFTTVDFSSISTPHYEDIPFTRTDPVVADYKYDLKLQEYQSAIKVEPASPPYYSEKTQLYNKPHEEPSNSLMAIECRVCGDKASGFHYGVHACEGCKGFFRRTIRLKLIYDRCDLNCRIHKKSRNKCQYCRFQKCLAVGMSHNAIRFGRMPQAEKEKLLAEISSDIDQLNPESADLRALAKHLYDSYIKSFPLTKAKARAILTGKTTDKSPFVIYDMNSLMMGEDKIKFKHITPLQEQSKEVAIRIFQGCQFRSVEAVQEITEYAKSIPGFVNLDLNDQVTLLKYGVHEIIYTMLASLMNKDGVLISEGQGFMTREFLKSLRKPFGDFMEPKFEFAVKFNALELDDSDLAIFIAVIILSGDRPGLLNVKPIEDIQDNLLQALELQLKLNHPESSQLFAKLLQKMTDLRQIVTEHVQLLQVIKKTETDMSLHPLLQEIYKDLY
Description: In vitro potency of PPAR gene activation against human PPAR gamma receptor using chimeric Gal4-hPPAR transactivation assay (TA)

[3] = target: T3, Peroxisome proliferator-activated receptor delta (Homo sapiens, UniProt Q03181)
T3 sequence (Q03181 whole entry): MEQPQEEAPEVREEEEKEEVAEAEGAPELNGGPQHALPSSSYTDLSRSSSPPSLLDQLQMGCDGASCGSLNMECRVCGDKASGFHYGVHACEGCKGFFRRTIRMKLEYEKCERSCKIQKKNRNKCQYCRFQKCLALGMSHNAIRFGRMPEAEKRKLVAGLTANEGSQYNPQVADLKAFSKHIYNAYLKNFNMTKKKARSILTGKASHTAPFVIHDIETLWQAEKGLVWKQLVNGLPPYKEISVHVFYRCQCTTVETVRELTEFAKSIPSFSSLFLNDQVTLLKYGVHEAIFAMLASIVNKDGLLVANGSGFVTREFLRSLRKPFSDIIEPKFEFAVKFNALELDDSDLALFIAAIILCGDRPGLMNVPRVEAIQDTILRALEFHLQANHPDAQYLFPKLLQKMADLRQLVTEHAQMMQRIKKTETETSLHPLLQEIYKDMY

[4] = target: T2, Peroxisome proliferator-activated receptor gamma; assay: In vitro binding affinity for human peroxisome proliferator activated receptor gamma using scintillation proximity assay (SPA)
[5] = target: T1, Peroxisome proliferator-activated receptor alpha; assay: In vitro potency of PPAR gene activation against human Peroxisome proliferator activated receptor alpha using chimeric Gal4-hPPAR transactivation assay (TA)
[6] = target: T1, Peroxisome proliferator-activated receptor alpha; assay: In vitro transcriptional activation by human PPAR alpha Gal4 chimera; Not active
[7] = target: T2, Peroxisome proliferator-activated receptor gamma; assay: (§1) In vitro transcriptional activation by human PPAR gamma Gal4 chimera
[8] = Lower clearance in monkey (i.v.) at 0.5 mpk; assay type: ADME, organism-based; conditions: cercopithecidae, in vivo, iv, 0.5 mg/kg
[9] = Longer half-life in dog (i.v.) at 0.5 mpk; assay type: ADME, organism-based, Canis lupus familiaris; conditions: in vivo, iv, 0.5 mg/kg
[10] = Bioavailability in dog (p.o.) at 2.0 mpk; assay type: ADME, organism-based, Canis lupus familiaris; conditions: in vivo, po, 2 mg/kg
[11] = Longer half-life in rat (i.v.) at 0.5 mpk; assay type: ADME, organism-based; conditions: in vivo, iv, 0.5 mg/kg
[12] = as §1; set-up: species or system Canis lupus familiaris
[13] = target: T4, Peroxisome proliferator-activated receptor gamma (Mus musculus, UniProt P37238); assay: In vitro transcriptional activation by PPAR gamma
T4 sequence (P37238 whole entry): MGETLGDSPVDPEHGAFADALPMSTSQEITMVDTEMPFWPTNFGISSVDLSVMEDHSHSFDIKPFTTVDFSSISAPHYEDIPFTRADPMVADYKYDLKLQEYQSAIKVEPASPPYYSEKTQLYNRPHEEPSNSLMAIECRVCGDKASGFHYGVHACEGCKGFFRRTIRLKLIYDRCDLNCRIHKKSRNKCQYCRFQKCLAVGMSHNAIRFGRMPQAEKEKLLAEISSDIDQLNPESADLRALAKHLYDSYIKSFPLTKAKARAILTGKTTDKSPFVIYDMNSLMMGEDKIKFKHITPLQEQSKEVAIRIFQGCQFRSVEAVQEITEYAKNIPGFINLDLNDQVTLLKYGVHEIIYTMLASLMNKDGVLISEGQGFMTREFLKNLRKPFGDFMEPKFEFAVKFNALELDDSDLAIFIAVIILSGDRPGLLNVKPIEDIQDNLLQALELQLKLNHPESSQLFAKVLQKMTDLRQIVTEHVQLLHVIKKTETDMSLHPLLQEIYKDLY

Cricetinae gen. sp. [14] = assay: In vivo percent change in triglyceride in hamsters at 10 mg/kg; assay type: functional, Cricetulus griseus
Cricetinae gen. sp. [15] = assay: In vivo triglyceride in hamsters at 3 mg/kg; assay type: functional, Cricetulus griseus
[16] = Dose-normalized area under curve in monkey (p.o.) at 2.0 mpk; assay type: ADME; conditions: cercopithecidae, in vivo, po, 2 mg/kg
Canis familiaris [17] = assay: Lower clearance in dog (i.v.) at 0.5 mpk; assay type: ADME, organism-based, Canis lupus familiaris; conditions: in vivo, iv, 0.5 mg/kg
Canis familiaris [18] = assay: In vivo percent change in serum cholesterol in dogs at 3 mg/kg; assay type: functional, Canis lupus familiaris
Cricetinae gen. sp. [19] = assay: In vivo serum cholesterol in hamsters at 10 mg/kg; assay type: functional, Cricetulus griseus
[20] = Bioavailability in rat (dose 2.0 mg/kg p.o.); assay type: ADME, organism-based; conditions: in vivo, po
[21] = Longer half-life in rat (p.o.) at 2.0 mpk; assay type: ADME, organism-based; conditions: in vivo, po, 2 mg/kg
Rattus norvegicus [22] = assay: Dose-normalized area under curve in rat (p.o.) at 2.0 mpk; assay type: ADME, organism-based; conditions: in vivo, po, 2 mg/kg
Cricetinae gen. sp. [23] = assay: In vivo percent change in serum cholesterol in hamsters at 3 mg/kg; assay type: functional, Cricetulus griseus
Cricetinae gen. sp. [24] = assay: In vivo percent change in triglyceride in hamsters at 3 mg/kg; assay type: functional, Cricetulus griseus
Rattus norvegicus [25] = assay: Dose-normalized area under curve in rat (i.v.) at 0.5 mpk; assay type: ADME, organism-based; conditions: in vivo, iv, 0.5 mg/kg
Rattus norvegicus [26] = assay: Lower clearance in rat (i.v.) at 0.5 mpk; assay type: ADME, organism-based; conditions: in vivo, iv, 0.5 mg/kg
Cricetinae gen. sp. [27] = assay: In vivo percent change in serum cholesterol in hamsters at 10 mg/kg; assay type: functional, Cricetulus griseus
[28] = Bioavailability in monkey (p.o.) at 2.0 mpk; assay type: ADME, organism-based; conditions: cercopithecidae, in vivo, po, 2 mg/kg
Mesocricetus auratus = assay: In vivo serum cholesterol in Golden Syrian hamsters at 3 mg/kg
Cricetinae gen. sp. [29] = assay: In vivo triglyceride in hamsters at 10 mg/kg; assay type: functional, Cricetulus griseus
[30] = Longer half-life in monkey (i.v.) at 0.5 mpk; assay type: ADME, organism-based; conditions: cercopithecidae, in vivo, iv, 0.5 mg/kg
Canis familiaris [31] = assay: In vivo percent change in serum cholesterol in dogs at 1 mg/kg; assay type: functional, Canis lupus familiaris
Canis familiaris [32] = assay: Dose-normalized area under curve in dog (p.o.) at 2.0 mpk; assay type: ADME, organism-based, Canis lupus familiaris; conditions: in vivo, po, 2 mg/kg

Structure (SMILES): CCCc1cc(Oc2ccccc2)ccc1OCCCOc1ccc2c(c1)CCC(C(=O)O)O2 (stereo unspecified)
- IC50 [1]: > 15 µM
- EC50 [6]: Not Active
- EC50 [2]: 2.8 µM
- IC50 [3]: > 15 µM
- IC50 [4]: 2.9 µM

Structure (SMILES): CCCc1cc(Oc2ccccc2)ccc1OCCCOc1ccc2c(c1)OC(CC(C)C)(C(=O)O)CC2 (stereo unspecified)
- IC50 [1]: 3 µM
- IC50 [3]: 5 µM
- IC50 [4]: 1.2 µM

Structure (SMILES): CCCc1cc(Oc2ccccc2)ccc1OCCCCOc1ccc2c(c1)OC(C(=O)O)CC2 (stereo unspecified)
- IC50 [1]: > 15 µM
- EC50 [2]: 1.6 µM
- IC50 [3]: > 15 µM
- IC50 [4]: 1.8 µM
- EC50 [5]: 6.3 µM

Structure (SMILES): CCCc1cc(Oc2ccccc2)ccc1OCCCCOc1ccc2c(c1)OC(C)(C(=O)O)CC2 (stereo unspecified)
- IC50 [1]: > 15 µM
- EC50 [2]: 3.6 µM
- IC50 [3]: > 50 µM
- IC50 [4]: 5.1 µM
- EC50 [5]: 5.2 µM

Structure (SMILES): CC[C@]1(C(=O)O)CCc2ccc(OCCCOc3ccc(Oc4ccc(F)cc4)cc3Cl)cc2O1
- Clp [8]: 8.6 mL/min/kg
- half-life [9]: 10 h
- bioavailability [10]: 92%
- half-life [11]: 4.6 h
- EC50 [12]: 0.14 µM
- EC50 [13]: 0.15 µM
- Change (Cricetinae gen. sp. [14]): -48%
- Activity (Cricetinae gen. sp. [15]): 222 mg/dL
- nAUC [16]: 1.7 µM·h
- Clp (Canis familiaris [17]): 3.5 mL/min/kg
- Change (Canis familiaris [18]): -31.6%
- Activity (Cricetinae gen. sp. [19]): 65 mg/dL
- IC50 [3]: > 15 µM
- bioavailability [20]: 48%
- half-life [21]: 3.7 h
- nAUC (Rattus norvegicus [22]): 4.8 µM·h
- Change (Cricetinae gen. sp. [23]): -21%
- Change (Cricetinae gen. sp. [24]): -27%
- nAUC (Rattus norvegicus [25]): 10 µM·h
- Clp (Rattus norvegicus [26]): 3.4 mL/min/kg
- Change (Cricetinae gen. sp. [27]): -40%
- bioavailability [28]: 43%
- Activity (Mesocricetus auratus): 85 mg/dL
- Activity (Cricetinae gen. sp. [29]): 159 mg/dL
- half-life [30]: 3.5 h
- Change (Canis familiaris [31]): -23.3%
- nAUC (Canis familiaris [32]): 9.2 µM·h

The next lines start with the values.

- IC50 [1]: > 15 µM
- EC50 [2]: 0.89 µM
- IC50 [3]: > 50 µM
- IC50 [4]: 0.63 µM
- EC50 [5]: 4.6 µM
Structure (SMILES): CCCc1cc(Oc2ccc(OC)cc2)ccc1OCCCOc1ccc2c(c1)OC(CC)(C(=O)O)CC2 (stereo unspecified)

- IC50 [3]: > 50 µM
Structure (SMILES): CC[C@@]1(C(=O)O)CCc2ccc(OCCCOc3ccc(Oc4ccc(F)cc4)cc3Cl)cc2O1

- IC50 [1]: 0.36 µM
- EC50 [2]: 1 µM
- IC50 [3]: > 50 µM
- IC50 [4]: 0.44 µM
- EC50 [5]: 0.03 µM
Structure (SMILES): CCCc1cc(Oc2ccccc2)ccc1OCCCOc1ccc2c(c1)OC(CC)(C(=O)O)CC2 (stereo unspecified)

- IC50 [1]: 4 µM
- EC50 [2]: 0.67 µM
- IC50 [3]: > 50 µM
- IC50 [4]: 1.4 µM
- EC50 [5]: 0.21 µM
Structure (SMILES): CCCc1cc(Oc2ccc(Cl)cc2)ccc1OCCCOc1ccc2c(c1)OC(CC)(C(=O)O)CC2 (stereo unspecified)

- IC50 [1]: 0.97 µM
- EC50 [2]: 0.75 µM
- IC50 [3]: > 50 µM
- IC50 [4]: 1.2 µM
- EC50 [5]: 0.01 µM
Structure (SMILES): CCCc1cc(Oc2ccc(F)cc2)ccc1OCCCOc1ccc2c(c1)OC(CC)(C(=O)O)CC2 (stereo unspecified)

- IC50 [1]: 0.12 µM
- EC50 [7]: 0.36 µM
- IC50 [3]: > 15 µM
- IC50 [4]: 1.4 µM
- EC50 [5]: 0.08 µM
Structure (SMILES): CC1(C(=O)O)CCc2ccc(OCCCOc3ccc(Oc4ccccc4)cc3Cl)cc2O1 (stereo unspecified)
